# According to ChEMBL document CHEMBL1147213, “Impact on farnesyltransferase inhibition of 4-chlorophenyl moiety replacement in the Zarnestra series” (Eur J Med Chem, 2007):
# Biological target: not listed separately
# Test: Inhibition of FTase by SPA
# Set-up: species or system Homo sapiens
row,Structure (SMILES),IC50 [nM]
1,N#Cc1ccc(Cn2cncc2C(O)c2ccc3c(c2)c(-c2cccc(Cl)c2)cc2nnnn23)cc1 (stereo not drawn),11
2,OC(c1ccc2c(c1)c(-c1cccc(Cl)c1)cc1nnnn12)c1cncn1Cc1ccc(Cl)cc1 (stereo not drawn),> 100
3,Cn1cncc1[C@](N)(c1ccc(Cl)cc1)c1ccc2c(c1)c(-c1cccc(Cl)c1)cc(=O)n2C [(S)-TIPIFARNIB],0.9
4,Cn1cncc1C(O)(c1ccc2c(c1)c(-c1cccc(Cl)c1)nc1nnnn12)c1ccc(Cl)s1 (stereo not drawn),16
5,Cn1cncc1C(N)(c1ccc2c(c1)c(-c1cccc(Cl)c1)nc1nnnn12)c1ccc(Cl)s1 (stereo not drawn),< 100

# Continued by falling IC50, values first:
row,IC50 [nM],Structure (SMILES)
1,5,CCc1nccn1C(c1ccc2c(c1)c(-c1cccc(Cl)c1)nc1nnnn12)c1cncn1C (stereo not drawn)
2,4,Cn1cncc1C(c1ccc2c(c1)c(-c1cccc(Cl)c1)nc1nnnn12)n1ccnc1-c1ccc(F)cc1 (stereo not drawn)
3,3.5,Cn1cncc1C(N)(c1ccc(Cl)cc1)c1ccc2c(c1)c(-c1cccc(Cl)c1)nc1nnnn12 (stereo not drawn)
4,3.5,Cn1cncc1C(N)(c1ccc(Cl)cc1)c1ccc2c(c1)c(-c1cccc(Cl)c1)cc1nnnn12 (stereo not drawn)
5,1,Cn1cncc1C(c1ccc2c(c1)c(-c1cccc(Cl)c1)nc1nnnn12)n1ccnc1-c1ccccc1 (stereo not drawn)
6,1,Cn1cncc1C(c1ccc2c(c1)c(-c1cccc(Cl)c1)nc1nnnn12)n1ccnc1-c1cccc(C#N)c1 (stereo not drawn)

# Species on record: Homo sapiens
# Test: Inhibition of FTase at 100 nM by SPA
row,inhibition [%],Structure (SMILES)
1,32,OC(c1ccc2c(c1)c(-c1cccc(Cl)c1)cc1nnnn12)c1cncn1Cc1ccc(Cl)cc1 (stereo not drawn)
2,69,Cn1cncc1C(N)(c1ccc2c(c1)c(-c1cccc(Cl)c1)nc1nnnn12)c1ccc(Cl)s1 (stereo not drawn)
